Test system: PC12 cells
Test: MTT cell viability assay, extract alone
Type: cell-based
Conditions: addition of FCCP
Protocol: Cellular health was quantified using a 3-(4,5-dimethylthizol-2-yl)-2,5-diphenyltetrazolium bromide (MTT) assay, which indicates cell viability. Cultured PC12 cells were incubated in MTT (1 mg/ml) in 1X DPBS (Dulbecco's phosphate-buffered saline) for 30 minutes, in the presence (or absence) of maqui berry extract provided a concentrations ranging from 0.000081 mg/l to 81 mg/l. Precipitated MTT was dissolved using isopropanol for 15 minutes prior to being added to the culture medium. The cell absorbance was measured in a microplate reader (Novostar, BGM, Germany) at two wavelengths: 560 nm and 620 nm. The difference in cellular absorbance was quantified between the two wavelengths using NovoStar software across experimental conditions.

N#CC(C#N)=NNc1ccc(OC(F)(F)F)cc1 [FCCP, Carbonyl cyanide 4-(trifluoromethoxy)phenylhydrazone]
cell viability percent relative to control (MTT): significant decrease in cell viability percent relative to control levels
